Each structure is given as a SMILES string.

For one test, the system named is N.meningitidis. As to the kind of experiment: Inhibition of adherence of N. meningitidis to buccal mucosa cells. The format is cell-based. The conditions noted are these: human buccal mucosa cells, N.meningitidis strain 3K, 45 min. The method, then: (§1) Procedure: 1 ml of […] containing 0 of (1), 5 mg/ml of (1) and 0.5 mg/ml of (1) and 5 mg/ml of (2), respectively, were incubated with 0.5 ml bacterial suspension at 37°C for 30 minutes. Vaginal cells (1 ml) were incubated with the above preincubated bacterial suspensions at 37°C for 45 minutes. The incubated suspensions were filtered through a filter (pore size 12 µ) and washed 3 times with PBS. The filter was pressed against microscope slides for a few seconds, the microscope slides being then fixed in methanol for 10 minutes. The microscope slides were dried in air and coloured with acridine orange for 2 minutes. After washing and drying in air the slides were studied by means of fluorescence microscopy. The number of bacteria adhering per cell was counted. In each test 50 vaginal cells were counted.
The procedure of EXAMPLE 2 was repeated but in this case cells were collected from young healthy women by scraping the Buccal Mucosae with a wooden spatula. The bacterium used was N.meningitidis, international test strain 3K, Statens Seruminstitut, Copenhagen, Denmark.

The test system of test [1] is N.gonorrhoeae. As to the kind of experiment: Inhibition of adherence of N. gonorrhoeae to vaginal cells. The format is cell-based. As to conditions: human vaginal cells, 50 cells counted; for reduction of the number of adhering bacteria: 5 mg/ml oligosaccharide. The method, then:
Cells: Vaginal cells from healthy women in fertile age not having used hormonal preparations and werein proliferation phase were tested. Cells were collected from rear vaginal fornix with a wooden spatula and suspended in RPMI 1640 in a concentration of 10^5 cells/ml.
Gonococci: International reference strain 3 from Neisseriaavd. Statens Seruminstitut, Copenhagen, Denmark, suspended in cell cultivation medaium RPMI 1640 (Flow Ltd.) in a concentration of 10^9 bacteria/ml.
Oligosaccharides: β-D-Galp-(1-3)- -D-GalNAc-(1-0)-Me (1) β-D-Galp-(1-3)- -D-GalNAc-(1-0)-Me (2)
as §1

Test [2] concerns N.gonorrhoeae. The test is described as follows: Inhibition of haemagglutination of human erythrocytes by N. gonorrhoeae. The class given is cell-based. As to conditions: Neisseria gonorrhoeae, Erythrocyte; human erythrocytes (O1Rh+); fimbriated N.gonorrhoeae; read after 2-4 hours at room temperature; read-out: Minimum concentration of inhibitor resulting in complete inhibition. The method, then: (§2) In the test there is used a strain of N. gonorrhoeae (international reference strain 3 from Neisseriaavd. Statens seruminstitutt, Copenhagen, Denmark. and a fresh strain of the same species isolated at the Bacteriological Central Laboratory, Lunds Hospital, Lund, Sweden). The bacteria were cultivated on a special gonococc medium, see Mardh, P.A., Martensson, D, Soltesz, L.V. "An effective, simplified medium for the culture of N. gonorrhoeae". Sex.Trans.Dis. Vol. 5, pp. 10-13, 1978, at + 37°C for 18 hours. The bacterial culture was slurried in PBS, pH 7.2 to a density of 109 bacteria/ml.
(§3) Haemagglutination was performed using erythrocytes from sheep or man (O1Rh+) which were washed with PBS and suspended to a concentration of 1 % v/w in PBS, pH 7.2. The agglutination tests were-performed so that 25 µl of the bacterial suspension was titrated in PBS by using two-fold […] steps. Then 25 µl of the erythrocyte suspension which had been made 1 % were added. The haemagglutination titre (Hu) was determined after incubating the plates (microtitre plates, Limbo Sc. Comp. Inc.) for 2-4 hours in room temperature.
(§4) In the haemagglutination-inhibition tests there were used serial dilutions having the relevant inhibitor (50 µl/well) and […] bacterial suspension diluted to contain twice the lowest haemagglutination titre. The plates were incubated for 30 minutes at +37°C, 25 µl of erythrocyte suspension being then added to each well. The result was read after 2-4 hours incubation at room temperature.

In a further test the test system is N. gonorrhoeae. As to the kind of experiment: Inhibition of haemagglutination of sheep erythrocytes by N. gonorrhoeae. The format is cell-based. The conditions noted are these: Neisseria gonorrhoeae, Erythrocyte, fimbriated N. gonorrhoeae, read after 2-4 hours at room temperature, read-out: Minimum concentration of inhibitor resulting in complete inhibition of haemagglutination. The method, then:
as §2, §3, §4

Test [3] has as its system N.gonorrhoeae. As to the kind of experiment: Disinfection: removal of bacteria from an infected surface. The conditions noted are these: 0.1 percent by weight aqueous solution applied with a cotton pad. The procedure: By disinfection is here primarily intended removal of bacteria from a surface, for example a wound.
A 0.1 percent by weight aqueous solution of the compound β-D-Galp-(1-4)-D-GNAc is prepared and applied by means of a cotton pad onto a surface infected by N.gonorrhoeae.

`COC1O[C@H](CO)[C@H](O)[C@H](O[C@@H]2O[C@H](CO)[C@H](O)[C@H](O)[C@H]2O)[C@H]1NC(C)=O` (stereo partly drawn) [(1), β-D-Galp-(1-3)- -D-GalNAc-(1-0)-Me]: the “reduction of the number of adhering bacteria” value in the test on N.meningitidis (0.5 mg/ml oligosaccharide) is given as “about 15%”; with N.meningitidis (5 mg/ml oligosaccharide), 90%; in the test on N.gonorrhoeae [1] (45 min) it was 87. Besides, the effect on adherence entry in the test with N.gonorrhoeae [1] (0.5 mg/ml oligosaccharide) is reported as “did not significantly effect adherence”. On to `COC1O[C@H](CO)[C@H](O)[C@H](O[C@@H]2O[C@H](CO)[C@H](O)[C@H](O)[C@H]2O)[C@H]1NC(C)=O` (stereo partly drawn) [(2), β-D-Galp-(1-3)- -D-GalNAc-(1-0)-Me], for which, in the test with N.gonorrhoeae [1], the “reduction of the number of adhering bacteria” value is given as “did not significantly effect adherence”. `CC(=O)N[C@H]1[C@H](O[C@H]2[C@@H](O)[C@@H](CO)O[C@H](O[C@@H]3[C@H](O)[C@@H](O)[C@H](O[C@H]4[C@H](O)[C@@H](O)C(O)O[C@@H]4CO)O[C@@H]3CO)[C@@H]2O)O[C@H](CO)[C@H](O)[C@@H]1O` (stereo partly drawn) [β-D-GalNAc-(1-3)-α-D-Galp-(1-4) -β-D-Galp-(1-4)-D-Glc]: in the test with N.gonorrhoeae [2], the minimal effective concentration was greater than 5000 µg/mL. As to `CC(=O)N[C@H]1C(O)O[C@H](CO)[C@H](O)[C@@H]1O[C@@H]1O[C@H](CO)[C@H](O)[C@H](O)[C@H]1O` (stereo partly drawn) [β-D-Galp-(1-3)-D-GalNAc], the minimal effective concentration in the test with N.gonorrhoeae [2] was found to be 800 µg/mL; in the test with N. gonorrhoeae, 900 µg/mL. Take `OC[C@H]1O[C@@H](O[C@H]2[C@@H](O)[C@@H](CO)OC(O)[C@@H]2O)[C@H](O)[C@@H](O)[C@H]1O` (stereo partly drawn) [β-D-Galp-(1-3)-D-Gal]: the minimal effective concentration in the test with N.gonorrhoeae [2] was greater than 5000 µg/mL.

Turning to `CO[C@H]1O[C@H](CO)[C@H](O)[C@H](O[C@@H]2O[C@H](CO)[C@H](O)[C@H](O)[C@H]2O)[C@H]1NC(C)=O` [β-D-Galp-(1-3)-α-D-GalNAc-(1-O)Me], the minimal effective concentration in the test with N. gonorrhoeae came to 150 µg/mL. With `CO[C@H]1O[C@H](CO)[C@H](O)[C@H](O[C@@H]2O[C@H](CO)[C@H](O)[C@H](O)[C@H]2O)[C@H]1NC(C)=O` [β-D-Galp-(1-3)-α-D-GalNAcp-(1-O)Me, Methyl 2-acetamido-2-deoxy-3-0-(β-D-galactopyranosyl)-a--D-galactopyranoside], the minimal effective concentration with N.gonorrhoeae [2] was determined as 200 µg/mL. For `CO[C@@H]1O[C@H](CO)[C@H](O)[C@H](O[C@@H]2O[C@H](CO)[C@H](O)[C@H](O)[C@H]2O)[C@H]1NC(C)=O` [β-D-Galp-(1-3)-β-D-GalNAc-(1-O)Me], in the test on N. gonorrhoeae, the minimal effective concentration was greater than 2000 µg/mL. For `CO[C@@H]1O[C@H](CO)[C@H](O)[C@H](O[C@@H]2O[C@H](CO)[C@H](O)[C@H](O)[C@H]2O)[C@H]1NC(C)=O` [β-D-Galp-(1-3)-β-D-GalNAcp-(1-O)Me, Methyl 2-acetamido-2-deoxy-3-0-(B-D-galaetopyranosyl)--β-D-galactopyranoside], in the test with N.gonorrhoeae [2], the minimal effective concentration is greater than 2000 µg/mL. As to `CC(=O)N[C@H]1C(O)O[C@H](CO)[C@@H](O[C@@H]2O[C@H](CO)[C@H](O)[C@H](O)[C@H]2O)[C@@H]1O` (stereo partly drawn) [β-D-Galp-(1-4)-D-GNAc], in the test on N.gonorrhoeae [3], the “removal of the bacterium from the surface” value is “effective removal of the bacterium from the surface”. Consider `OC[C@H]1O[C@@H](O[C@H]2[C@H](O)[C@@H](O)C(O)O[C@@H]2CO)[C@H](O)[C@@H](O)[C@H]1O` (stereo partly drawn) [β-D-Galp-(1-4)-D-Glc], for which the minimal effective concentration in the test on N.gonorrhoeae [2] was greater than 5000 µg/mL.

Turning to `OC[C@H]1O[C@@H](OC[C@H]2OC(O)[C@H](O)[C@@H](O)[C@@H]2O)[C@H](O)[C@@H](O)[C@H]1O` (stereo partly drawn) [β-D-Galp-(1-6)-D-Glc], the minimal effective concentration in the test with N.gonorrhoeae [2] is greater than 5000 µg/mL.
